Tests used:
[1] = target: dopamine transporter (DAT); details: dopamine transporter (DAT) ligand; cited from earlier work
serotonine transporter = serotonine transporter (Homo sapiens, UniProt P31645); details: cited from earlier work
[2] = target: norepinephrine transporter (Homo sapiens, UniProt P23975); details: cited from earlier work
[3] = Chemical and radiochemical stability of the radiotracer preparation by HPLC; format: physicochemical; details: preparation ready for i.v. injection (physiological saline, ethanol below 10%); HPLC D at regular 15-min intervals during 120 min
Procedure: Quality controls of [^18F]LBT-999 ([^18F]-10) were performed on an aliquot of the preparation ready for i.v. injection. The radiotracer preparation was a clear and colourless solution with a measured pH between 5 and 7.
Quality control of [^18F]LBT-999 ([^18F]-10). The radiotracer preparation was visually inspected for clarity, absence of colour and particulates. An aliquot of the preparation was removed for determination of pH using standard pH-paper. Chemical and radiochemical purities were also assessed on this aliquot by HPLC (HPLC D), with a sample of authentic 10 (tR : 2.25 min) which synthesis and characterization were disclosed in Dollé F et al., 2006. Particular attention was paid to the absence of non-radioactive precursor 9 (tR: 3.45 min). Chemical and radiochemical stability of the entire preparation was tested by HPLC (HPLC D) at regular 15-min intervals during 120 min. Specific radioactivity of the radiotracer was calculated from three consecutive HPLC (HPLC D) analyses (average) and determined as follows: The area of the UV absorbance peak corresponding to the radiolabelled product was measured (integrated) on the HPLC chromatogram and compared to a standard curve relating mass to UV absorbance.

serotonine transporter, sequence (P31645 whole entry): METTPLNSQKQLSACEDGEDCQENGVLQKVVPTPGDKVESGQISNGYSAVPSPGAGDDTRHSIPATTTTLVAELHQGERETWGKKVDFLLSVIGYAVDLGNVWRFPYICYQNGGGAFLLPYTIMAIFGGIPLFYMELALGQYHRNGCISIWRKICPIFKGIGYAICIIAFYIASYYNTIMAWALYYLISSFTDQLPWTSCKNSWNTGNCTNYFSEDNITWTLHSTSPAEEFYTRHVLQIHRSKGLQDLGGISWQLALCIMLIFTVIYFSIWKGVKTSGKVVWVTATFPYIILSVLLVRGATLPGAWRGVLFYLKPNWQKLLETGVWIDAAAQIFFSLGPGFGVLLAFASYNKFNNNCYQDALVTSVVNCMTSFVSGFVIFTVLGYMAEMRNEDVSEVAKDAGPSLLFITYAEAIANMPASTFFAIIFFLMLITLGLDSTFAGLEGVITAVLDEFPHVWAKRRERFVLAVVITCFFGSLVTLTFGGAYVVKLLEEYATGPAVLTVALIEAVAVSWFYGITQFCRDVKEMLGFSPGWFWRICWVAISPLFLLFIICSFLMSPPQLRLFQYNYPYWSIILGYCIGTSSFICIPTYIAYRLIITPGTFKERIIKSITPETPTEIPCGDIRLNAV
norepinephrine transporter, sequence (P23975 whole entry): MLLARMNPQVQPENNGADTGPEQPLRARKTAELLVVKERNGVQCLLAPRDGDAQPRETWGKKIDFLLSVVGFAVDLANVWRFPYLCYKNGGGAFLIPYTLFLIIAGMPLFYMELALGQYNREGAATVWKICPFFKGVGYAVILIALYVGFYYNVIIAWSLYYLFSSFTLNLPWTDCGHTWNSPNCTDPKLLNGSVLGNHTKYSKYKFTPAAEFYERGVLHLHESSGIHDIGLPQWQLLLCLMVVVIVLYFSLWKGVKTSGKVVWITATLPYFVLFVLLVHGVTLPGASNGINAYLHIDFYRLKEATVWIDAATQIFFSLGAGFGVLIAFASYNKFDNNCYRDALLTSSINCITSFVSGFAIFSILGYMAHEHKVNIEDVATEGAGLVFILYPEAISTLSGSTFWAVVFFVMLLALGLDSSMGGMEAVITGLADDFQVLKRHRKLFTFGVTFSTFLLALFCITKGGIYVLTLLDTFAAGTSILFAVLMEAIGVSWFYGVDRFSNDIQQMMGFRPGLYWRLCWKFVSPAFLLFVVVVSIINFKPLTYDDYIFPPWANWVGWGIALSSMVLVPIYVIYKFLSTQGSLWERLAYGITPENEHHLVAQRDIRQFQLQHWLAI

## COC(=O)[C@H]1[C@@H](c2ccc(C)cc2)C[C@@H]2CC[C@H]1N2C/C=C/CF [LBT-999, 8-((E)-4-fluoro-but-2-enyl)-3β-p-tolyl-8-aza-bicyclo[3.2.1]octane-2β-carboxylic acid methyl ester]
[1]
  Kd: 9 nM
Serotonine transporter
  IC50: > 1000 nM
[2]
  IC50: > 1000 nM

## COC(=O)[C@H]1[C@@H](c2ccc(C)cc2)C[C@@H]2CC[C@H]1N2C/C=C/C[18F] [[^18F]LBT-999, 8-((E)-4-[^18F]fluoro-but-2-enyl)-3β-p-tolyl-8-aza-bicyclo-[3.2.1]octane-2β-carboxylic acid methyl ester]
[3]
  chemically and radiochemically stable: at least 120 minutes

Source: patent publication EP1925615B1, “Method of fluorine-18 labelling of tropane derivatives” (Orphachem, priority 2006, dated 2008)
